We go through 17 compounds from patent US7514443B2, “Substituted pyrazolo[1,5-a]pyrimidines as inhibitors of metabotropic glutamate receptors” (Hoffmann-La Roche Inc., priority 2003, dated 2009).

Molecules are shown by their SMILES.

One data set has as its target T1, rat mGlu2 receptor (Rattus norvegicus, UniProt P31421).
T1 construct: expressed in transfected cells; membranes prepared from them
As to the kind of experiment: [3H]-LY354740 binding on mGlu2 transfected CHO cell membranes. The following applies: inhibition of 10 nM [3H]-LY354740 binding, membranes of mGlu2 transfected CHO cells, room temperature, 1 hour; read-out: mGluR2 Ki. The source says: [^3H]-LY354740 Binding on mGlu2 Transfected CHO Cell Membranes
Transfection and cell culture: cDNA encoding the rat mGlu2 receptor protein in pBluescript II was subcloned into the eukaryotic expression vector pcDNA I-amp from Invitrogen (NV Leek, The Netherlands). This vector construct (pcD1mGR2) was co-transfected with a psvNeo plasmid encoding the gene for neomycin resistance, into CHO cells by a modified calcium phosphate method described by Chen & Okayama (1988). The cells were maintained in Dulbecco's Modified Eagle medium with reduced L-glutamine (2 mM final concentration) and 10% dialyzed foetal calf serum from Gibco BRL (Basel, Switzerland). Selection was made in the presence of G-418 (1000 μg/ml final). Clones were identified by reverse transcription of 5 μg total RNA, follow by PCR using mGlu2 receptor specific primers 5′-[…]-3′ (SEQ ID NO: 1) and 5′-[…]-3′ (SEQ ID NO:2) in 60 mM Tris HCl (pH 10), 15 mM (NH4)2SO4, 2 mM MgCl2, 25 units/ml Taq Polymerase with 30 cycles annealing at 60° C. for 1 min., extension at 72° C. for 30 s, and 1 min. 95° C. denaturation.
Membrane preparation: Cells, cultured as above, were harvested and washed three times with cold PBS and frozen at −80° C. The pellet was resuspended in cold 20 mM HEPES-NaOH buffer containing 10 mM EDTA (pH 7.4), and homogenized with a polytron (Kinematica, AG, Littau, Switzerland) for 10 s at 10 000 rpm. After centrifugation for 30 min. at 4° C., the pellet was washed once with the same buffer, and once with cold 20 mM HEPES-NaOH buffer containing 0.1 mM EDTA, (pH 7.4). Protein content was measured using the Pierce method (Socochim, Lausanne, Switzerland) using bovine serum albumin as standard.
[^3H]-LY354740 binding: After thawing, the membranes were resuspended in cold 50 mM Tris-HCl buffer containing 2 mM MgCl2 and 2 mM CaCl2, (pH 7) (binding buffer). The final concentration of the membranes in the assays was 25 μg protein/ml. Inhibition experiments were performed with membranes incubated with 10 nM [^3H]-LY354740 at room temperature, for 1 hour, in the presence of various concentrations of the compound to be tested. Following the incubations, membranes were filtered onto Whatmann GF/C glass fiber filters and washed 5 times with cold binding buffer. Non specific binding was measured in the presence of 10 μM DCG IV. After transfer of the filters into plastic vials containing 10 ml of Ultima-gold scintillation fluid (Packard, Zürich, Switzerland), the radioactivity was measured by liquid scintillation in a Tri-Carb 2500 TR counter (Packard, Zürich, Switzerland).
Data analysis: The inhibition curves were fitted with a four parameter logistic equation giving IC50 values, and Hill coefficients.

T1 sequence (P31421 19-872): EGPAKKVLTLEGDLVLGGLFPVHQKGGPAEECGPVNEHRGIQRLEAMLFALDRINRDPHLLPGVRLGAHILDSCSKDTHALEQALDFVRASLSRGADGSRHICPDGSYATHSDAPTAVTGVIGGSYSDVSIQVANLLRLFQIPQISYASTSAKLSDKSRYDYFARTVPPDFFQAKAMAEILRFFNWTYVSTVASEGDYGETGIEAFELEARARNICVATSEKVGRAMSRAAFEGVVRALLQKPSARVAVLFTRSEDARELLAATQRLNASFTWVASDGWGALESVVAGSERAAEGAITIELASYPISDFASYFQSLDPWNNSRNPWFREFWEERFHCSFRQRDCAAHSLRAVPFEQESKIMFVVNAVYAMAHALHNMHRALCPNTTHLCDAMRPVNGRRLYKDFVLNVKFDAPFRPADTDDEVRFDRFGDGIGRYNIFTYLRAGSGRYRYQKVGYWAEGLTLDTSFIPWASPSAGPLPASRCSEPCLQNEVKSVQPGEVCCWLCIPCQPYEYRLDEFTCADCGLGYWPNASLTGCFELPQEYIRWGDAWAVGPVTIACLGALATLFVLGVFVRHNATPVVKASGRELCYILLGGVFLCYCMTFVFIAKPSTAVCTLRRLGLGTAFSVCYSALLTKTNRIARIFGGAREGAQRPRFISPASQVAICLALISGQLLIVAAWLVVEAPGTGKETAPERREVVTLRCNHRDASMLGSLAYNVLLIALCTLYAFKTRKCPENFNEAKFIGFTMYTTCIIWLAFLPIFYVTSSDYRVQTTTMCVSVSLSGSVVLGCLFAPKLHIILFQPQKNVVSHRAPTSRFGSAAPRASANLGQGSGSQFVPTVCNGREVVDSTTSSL

Usually Ki stands for a measure of affinity in units of concentration, obtained from inhibition or displacement. What is called melting point is the temperature of the solid-liquid transition. As for `N#Cc1ncn2c(C(F)(F)F)cc(-c3ccc(Cl)c(Cl)c3)nc12` [Example 5.20, 5-(3,4-Dichloro-phenyl)-7-trifluoromethyl-imidazo[1,5-a]pyrimidine-8-carbonitrile], the melting point turned out to be 219 °C. The Ki at rat mGlu2 receptor is 43 nM.

`FC(F)(F)COc1ccc(-c2cc(C(F)(F)F)n3ncc(-c4ccncc4)c3n2)cc1C(F)(F)F` [Example 4.43, 5-[4-(2,2,2-Trifluorothoxy)-3-trifluoromethyl-phenyl]-3-pyridin-4-yl-7-trifluoromethyl-pyrazolo[1,5-a]pyrimidine] had a melting point of 247 °C. At rat mGlu2 receptor, the Ki was 48 nM.

In turn, `Cc1cc(-c2cc(C(F)(F)F)n3nc(CC#N)c(C#N)c3n2)ccc1Cl` [Example 3.2, 5-(4-Chloro-3-methyl-phenyl)-2-cyanomethyl-7-trifluoromethyl-pyrazolo[1,5-a]pyrimidine-3-carbonitrile] showed a melting point of 238 °C. Also, on rat mGlu2 receptor, the inhibition constant (Ki) is 76 nM.

Compound `Cc1cc(-c2cnn3c(C(F)(F)F)cc(-c4cccc(C(F)(F)F)c4)nc23)cc(C)n1` [Example 4.24, 5-(3-Trifluoromethyl-phenyl)-3-(2,6-dimethyl-pyridin-4-yl)-7-trifluoromethyl-pyrazolo[1,5-a]pyrimidine] gave a melting point of 236 °C. Also, the Ki at rat mGlu2 receptor turned out to be 43 nM.

The compound `Cc1nn2c(C(F)(F)F)cc(-c3cccc(C(F)(F)F)c3)nc2c1C#N` [Example 2.2, 2-Methyl-5-(3-trifluoromethyl-phenyl)-7-trifluoromethyl-pyrazolo[1,5-a]pyrimidine-3-carbonitrile] registered a melting point of 215 °C. Besides, the Ki at rat mGlu2 receptor worked out at 72 nM.

With `FC(F)(F)c1cc(-c2ccc(Cl)c(Cl)c2)nc2c(-c3cccnc3)cnn12` [Example 4.9, 5-(3,4-Dichloro-phenyl)-3-pyridin-3-yl-7-trifluoromethyl-pyrazolo[1,5-a]pyrimidine], the melting point was determined as 224 °C. The Ki on rat mGlu2 receptor was 47 nM.

Consider `Cc1cc(-c2cc(C(F)(F)F)n3ncc(-c4cc[n+]([O-])c(C)c4)c3n2)ccc1Cl` [Example 7.1, 5-(4-Chloro-3-methyl-phenyl)-3-(2-methyl-1-oxy-pyridin-4-yl)-7-trifluoromethyl-pyrazolo[1,5-a]pyrimidine], for which the Ki on rat mGlu2 receptor was found to be 43.9 nM.

On to `Cc1cc(-c2cnn3c(C(F)(F)F)cc(-c4ccc(C(F)(F)F)c(F)c4)nc23)ccn1` [Example 4.35, 5-(3-Fluoro-4-trifluoromethyl-phenyl)-3-(2-methyl-pyridin-4-yl)-7-trifluoromethyl-pyrazolo[1,5-a]pyrimidine], for which the melting point stood at 250 °C. Moreover, at rat mGlu2 receptor, the inhibition constant (Ki) is 45 nM.

For `N#Cc1c(-c2ccc(OCC(F)(F)F)c(C(F)(F)F)c2)nn2c(C(F)(F)F)ccnc12` [Example 1.19, 2-(4-Trifluoroethoxy-3-trifluoromethyl-phenyl)-4-trifluoromethyl-pyrazolo[1,5-a]pyrimidine-8-carbonitrile], at rat mGlu2 receptor, the Ki is 32 nM.

In the case of `N#Cc1cnn2c(C(F)(F)F)cc(-c3ccc(F)c(C(F)(F)F)c3)nc12` [Example 1.13, 5-(4-Fluoro-3-trifluoromethyl-phenyl)-7-trifluoromethyl-pyrazolo[1,5-a]pyrimidine-3-carbonitrile], the melting point was 204 °C. Also, on rat mGlu2 receptor, the Ki turned out to be 43 nM.

`Cc1cc(-c2cnn3c(C(F)(F)F)cc(-c4ccc(C(F)(F)F)c(C(F)(F)F)c4)nc23)ccn1` [Example 4.54, 5-(3,4-Bis-trifluoromethyl-phenyl)-3-(2-methyl-pyridin-4-yl)-7-trifluoromethyl-pyrazolo[1,5-a]pyrimidine] returned a melting point of 223 °C.

In turn, `Cc1ccc(-c2cc(C(F)(F)F)n3cnc(-c4cccnc4)c3n2)cc1C(F)(F)F` [Example 8.7, 2-(4-Methyl-3-trifluoromethyl-phenyl)-8-pyridin-3-yl-4-trifluoromethyl-imidazo[1,5-a]pyrimidine] registered a melting point of 236 °C.

The compound `N#Cc1ncn2c(C(F)(F)F)cc(-c3ccccn3)nc12` [Example 5.25, 2-Pyridin-2-yl-4-trifluoromethyl-imidazo[1,5-a]pyrimidine-8-carbonitrile] registered a melting point of 205 °C.

In turn, `FC(F)(F)c1ccc(-c2cc(C(F)(F)F)n3cnc(-c4ccncc4)c3n2)cc1` [Example 8.14, 8-Pyridin-4-yl-4-trifluoromethyl-2-(4-trifluoromethyl-phenyl)-imidazo[1,5-a]pyrimidine] registered a melting point of 240 °C.

In the case of `N#Cc1cnn2c(C(F)(F)F)cc(-c3ccc(Cl)cc3Cl)nc12` [Example 1.4, 5-(2,4-Dichloro-phenyl)-7-trifluoromethyl-pyrazolo[1,5-a]pyrimidine-3-carbonitrile], the melting point was 180 °C.

For the compound `CCOc1cc(-c2cc(C(F)(F)F)n3ncc(-c4cc(C)nc(C)c4)c3n2)ccc1C(F)(F)F` [Example 4.48, 3-(2,6-Dimethyl-pyridin-4-yl)-5-(3-ethoxy-4-trifluoromethyl-phenyl)-7-trifluoromethyl-pyrazolo[1,5-a]pyrimidine], the melting point amounted to 257 °C.

In turn, `N#Cc1cnn2c(C(F)(F)F)cc(-c3cccc(F)c3)nc12` [Example 1.8, 5-(3-Fluoro-phenyl)-7-trifluoromethyl-pyrazolo[1,5-a]pyrimidine-3-carbonitrile] returned a melting point of 199 °C.
